In PubChem BioAssay AID256 (DTP/NCI, 2004):
Several values for one entry are separate records, joined by “and”; a condition that tells them apart may be missing. Equal values may be shown once. Inconclusive results and toxic doses are left out. Rule for the calls: active = survival T/C of 150% or more; inactive = T/C below 125% in these data.

System: CD2F1 mice, L1210 leukemia ip, survival T/C
Experiment: NCI In Vivo Anticancer Drug Screen. Data for tumor model L1210 Leukemia (intraperitoneal) in CD2F1 (CDF1) mice
Settings: endpoint: mean survival time, higher = longer survival
Outline: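 Transplantable tumor in mice; compound-treated vs vehicle-treated groups. Read-out = treated/control ratio of the measured endpoint.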

[1] = dose: 6.25 mg/kg/injection, schedule: Q01DX009 (ip), vehicle: saline with Tween-80
[2] = dose: 12.5 mg/kg/injection, schedule: Q01DX009 (ip), vehicle: saline with Tween-80
[3] = dose: 25.0 mg/kg/injection, schedule: Q01DX009 (ip), vehicle: saline with Tween-80
[4] = dose: 50.0 mg/kg/injection, schedule: Q01DX009 (ip), vehicle: saline with Tween-80
[5] = dose: 100.0 mg/kg/injection, schedule: Q01DX009 (ip), vehicle: saline with Tween-80
[6] = dose: 200.0 mg/kg/injection, schedule: Q01DX009 (ip), vehicle: saline with Tween-80
[7] = dose: 100.0 mg/kg/injection, schedule: Q01DX001 (ip), vehicle: saline
[8] = dose: 200.0 mg/kg/injection, schedule: Q01DX001 (ip), vehicle: saline
[9] = dose: 400.0 mg/kg/injection, schedule: Q01DX001 (ip), vehicle: saline
[10] = dose: 100.0 mg/kg/injection, schedule: Q04DX003 (ip), vehicle: saline with Tween-80
[11] = dose: 200.0 mg/kg/injection, schedule: Q04DX003 (ip), vehicle: saline with Tween-80
[12] = dose: 400.0 mg/kg/injection, schedule: Q04DX003 (ip), vehicle: saline with Tween-80
[13] = dose: 75.0 mg/kg/injection, schedule: Q01DX001 (ip), vehicle: saline
[14] = dose: 150.0 mg/kg/injection, schedule: Q01DX001 (ip), vehicle: saline
[15] = dose: 300.0 mg/kg/injection, schedule: Q01DX001 (ip), vehicle: saline
[16] = dose: 100.0 mg/kg/injection, schedule: Q01DX001 (ip), vehicle: saline with Tween-80
[17] = dose: 200.0 mg/kg/injection, schedule: Q01DX001 (ip), vehicle: saline with Tween-80
[18] = dose: 400.0 mg/kg/injection, schedule: Q01DX009 (ip), vehicle: saline with Tween-80
[19] = dose: 50.0 mg/kg/injection, schedule: Q01DX009 (ip), vehicle: saline
[20] = dose: 100.0 mg/kg/injection, schedule: Q01DX009 (ip), vehicle: saline
[21] = dose: 12.5 mg/kg/injection, schedule: Q04DX002 (ip), vehicle: saline
[22] = dose: 25.0 mg/kg/injection, schedule: Q04DX002 (ip), vehicle: saline

Measured: T/C

COc1cc(C(C)(C)C)cc(OC)c1C(O)(c1c(OC)cc(C(C)(C)C)cc1OC)c1c(OC)cc(C(C)(C)C)cc1OC
inactive: [1] 100 % of control | [2] 104 % of control | [3] 104 % of control | [4] 102 % of control | [5] 105 % of control | [6] 88 % of control

c1cc[n+](C[n+]2ccccc2)cc1
inactive: [7] 101 % of control | dose: 100.0 mg/kg/injection, schedule: Q04DX003 (ip), vehicle: saline 96 % of control | [8] 101 % of control | dose: 200.0 mg/kg/injection, schedule: Q04DX003 (ip), vehicle: saline 97 % of control | [9] 101 % of control | dose: 400.0 mg/kg/injection, schedule: Q04DX003 (ip), vehicle: saline 100 % of control

C[Si](C)(c1ccccc1C(=O)Nc1ccccc1)c1ccccc1C(=O)Nc1ccccc1
inactive: [10] 92 % of control | [11] 96 % of control | [12] 101 % of control

NC(=O)CC=O
inactive: [13] 98 % of control | [14] 93 % of control | [15] 95 % of control

CC1(C)CC(=O)C2(C)CCC3(CC2C1)OCCO3 (configuration not stated)
inactive: [10] 96 % of control | [11] 96 % of control | [12] 96 % of control

O=C(CNC1=NCCN1)Nc1ccc(NC(=O)c2ccc(C(=O)Nc3ccc(NC(=O)CNC4=NCCN4)cc3)cc2)cc1
inactive: dose: 12.0 mg/kg/injection, schedule: Q01DX Z (ip), vehicle: carboxymethylcellulose (CMC) 102 % of control | dose: 14.0 mg/kg/injection, schedule: Q01DX Z (ip), vehicle: carboxymethylcellulose (CMC) 106 % of control | dose: 16.0 mg/kg/injection, schedule: Q01DX Z (ip), vehicle: carboxymethylcellulose (CMC) 102 % of control | dose: 18.0 mg/kg/injection, schedule: Q01DX Z (ip), vehicle: carboxymethylcellulose (CMC) 106 % of control

CSC(=S)N(C)/N=C/c1ccccn1
inactive: [5] 98 % of control | [6] 96 % of control

COc1ccc(C=NC2C(OC(C)=O)OC(COC(C)=O)C(OC(C)=O)C2OC(C)=O)cc1 (configuration not stated)
inactive: dose: 6.25 mg/kg/injection, schedule: Q01DX009 (ip), vehicle: other 96 % of control | dose: 12.5 mg/kg/injection, schedule: Q01DX009 (ip), vehicle: other 96 % of control | dose: 25.0 mg/kg/injection, schedule: Q01DX009 (ip), vehicle: other 93 % of control | dose: 50.0 mg/kg/injection, schedule: Q01DX009 (ip), vehicle: other 94 % of control | dose: 100.0 mg/kg/injection, schedule: Q01DX009 (ip), vehicle: other 96 % of control

Nc1nc(N)c(CCCCc2ccc(NC(=O)c3cccc(S(=O)(=O)F)c3)cc2)c(N)n1
inactive: dose: 50.0 mg/kg/injection, schedule: Q01DX001 (ip), vehicle: saline with Tween-80 96 % of control | [16] 107 % of control | [17] 100 % of control

CC(C)(C)C1CC(=O)N(c2ccccc2)N1 (configuration not stated)
inactive: [10] 106 % of control | [11] 98 % of control | [12] 98 % of control

NNc1n[nH]c(=S)n1N
inactive: [1] 103 % of control | [2] 102 % of control | [3] 104 % of control and 107 % of control

Cc1ccc(S(=O)(=O)CCCCl)cc1
inactive: dose: 50.0 mg/kg/injection, schedule: Q01DX009 (ip), vehicle: Klucel (hydroxypropylcellulose) (HPC) 111 % of control | dose: 100.0 mg/kg/injection, schedule: Q01DX009 (ip), vehicle: Klucel (hydroxypropylcellulose) (HPC) 95 % of control | dose: 200.0 mg/kg/injection, schedule: Q01DX009 (ip), vehicle: Klucel (hydroxypropylcellulose) (HPC) 100 % of control

COc1ccc(C=NC2CC(C)CCC2C)c(OC)c1 (configuration not stated)
inactive: [5] 86 % of control | [10] 91 % of control | [6] 89 % of control | [11] 95 % of control | [18] 93 % of control | [12] 95 % of control

CC(/C=N/N(C)C)=N/[N+](C)(C)C
inactive: [19] 101 % of control | [20] 101 % of control

CC1=C(Br)C(=O)C(C(O)(C(F)(F)F)C(F)(F)F)C(C)(C)C1 (configuration not stated)
inactive: [10] 96 % of control | [11] 96 % of control

NC1=NCN(c2ccc(OCCOc3ccc(NC(=O)CBr)cc3)cc2)C(N)=N1
inactive: dose: 37.5 mg/kg/injection, schedule: Q04DX002 (ip), vehicle: saline with Tween-80 96 % of control | dose: 75.0 mg/kg/injection, schedule: Q04DX002 (ip), vehicle: saline with Tween-80 96 % of control | dose: 150.0 mg/kg/injection, schedule: Q04DX002 (ip), vehicle: saline with Tween-80 90 % of control

Oc1ccc(N=Nc2ccccn2)c(O)c1
inactive: [10] 97 % of control | [11] 112 % of control | [12] 93 % of control

CC(C)N(CC(=O)O)CC(=O)O
inactive: [7] 100 % of control | [8] 100 % of control

COc1ccc(N=C(C)CC(C)=O)cc1
inactive: dose: 100.0 mg/kg/injection, schedule: Q04DX002 (ip), vehicle: saline with Tween-80 98 % of control | dose: 200.0 mg/kg/injection, schedule: Q04DX002 (ip), vehicle: saline with Tween-80 95 % of control | dose: 400.0 mg/kg/injection, schedule: Q04DX002 (ip), vehicle: saline with Tween-80 95 % of control

C=CC(=O)Nc1cccc(OC(=O)NCC)c1
inactive: [5] 94 % of control | [6] 92 % of control | [18] 97 % of control

NC(N)=Nc1cccc(OCCCOc2ccccc2)c1
inactive: dose: 18.75 mg/kg/injection, schedule: Q01DX001 (ip), vehicle: saline with Tween-80 102 % of control | dose: 37.5 mg/kg/injection, schedule: Q01DX001 (ip), vehicle: saline with Tween-80 98 % of control | dose: 75.0 mg/kg/injection, schedule: Q01DX001 (ip), vehicle: saline with Tween-80 97 % of control

CC(=O)c1c(C(=O)O)c(=O)oc2cc(O)ccc12
inactive: [13] 98 % of control | [14] 98 % of control | [15] 98 % of control

CC1(C)N=C(N)N=C(N)N1c1ccc(CC(=O)Nc2ccc(S(=O)(=O)F)cc2)cc1
inactive: [7] 102 % of control | [8] 97 % of control | [9] 96 % of control

Cc1cnnc(N(C)N)c1
inactive: [21] 107 % of control | [22] 114 % of control | dose: 50.0 mg/kg/injection, schedule: Q04DX002 (ip), vehicle: saline 96 % of control

C=CCc1cn(C2CC(O)C(CO)O2)c(=O)[nH]c1=O (configuration not stated)
inactive: dose: 12.5 mg/kg/injection, schedule: Q01DX009 (ip), vehicle: saline 94 % of control and 104 % of control | dose: 25.0 mg/kg/injection, schedule: Q01DX009 (ip), vehicle: saline 101 % of control and 107 % of control | [19] 95 % of control and 108 % of control | [20] 103 % of control and 110 % of control | dose: 200.0 mg/kg/injection, schedule: Q01DX009 (ip), vehicle: saline 104 % of control and 106 % of control | dose: 400.0 mg/kg/injection, schedule: Q01DX009 (ip), vehicle: saline 118 % of control and 111 % of control (2×)

CCOc1cccc(Cc2cn(Cc3ccc(NC(=O)c4ccc(S(=O)(=O)F)cc4)cc3)c(=O)[nH]c2=O)c1
inactive: [16] 101 % of control | [17] 95 % of control | dose: 400.0 mg/kg/injection, schedule: Q01DX001 (ip), vehicle: saline with Tween-80 95 % of control

CC(C)CC(C)OP(=S)(S)OC(C)CC(C)C.[Cd] (configuration not stated)
inactive: dose: 6.25 mg/kg/injection, schedule: Q04DX002 (ip), vehicle: saline 93 % of control | [21] 104 % of control | dose: 25.0 mg/kg/injection, schedule: Q04DX002 (ip), vehicle: saline with Tween-80 100 % of control | [22] 93 % of control | dose: 50.0 mg/kg/injection, schedule: Q04DX002 (ip), vehicle: saline with Tween-80 88 % of control

Cc1ccc2c([N+](=O)[O-])cccc2n1
inactive: [3] 93 % of control | [4] 96 % of control | [5] 104 % of control

COC1OC(C(O)CO)C(O)C(O)C1O (configuration not stated)
inactive: [7] 105 % of control | [10] 104 % of control | [8] 96 % of control | [11] 103 % of control | [9] 102 % of control | [12] 98 % of control

O=C([O-])CC(=O)[O-].[NH-][C@@H]1CCCC[C@H]1[NH-].[Pt+4]
inactive: dose: 6.25 mg/kg/injection, schedule: Q04DX003 (ip), vehicle: saline with Tween-80 113 % of control

CCOC(=O)C(C)C(C)(O)c1ccccc1 (configuration not stated)
inactive: [10] 97 % of control | [11] 97 % of control | [12] 98 % of control
